Assay results: US10160748B2 (AbbVie Inc., priority 2015, dated 2018)

biological target: TNFα trimer (Homo sapiens, UniProt P01375); experiment: TNFα FP Competitive Binding Assay; settings: FP binding assay; 20 nM TNFα trimer, 1 nM OregonGreen488 probe; read-out: TNF IC50
In short: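 Fluorescence polarization competition: 20 nM TNFα trimer with 1 nM fluorescein-labelled probe in HEPES/NaCl/EDTA/Triton X-100 buffer, compound in 12-point 1:3 dilutions (final top 338 μM or 100 μM). Incubated 18-24 h, background-subtracted mP read, variable-slope dose-response fitting.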

TNFα trimer, sequence (P01375 77-233 limits assumed): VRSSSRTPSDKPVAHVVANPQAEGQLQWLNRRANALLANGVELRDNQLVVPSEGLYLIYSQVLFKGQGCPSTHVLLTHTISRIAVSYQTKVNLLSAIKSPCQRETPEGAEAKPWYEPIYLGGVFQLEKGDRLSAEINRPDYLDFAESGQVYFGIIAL

Compound | IC50 [nM]
Cn1c(=O)c2ccc(-c3cnc(N4CCN5C(=O)NC[C@@H]5C4)nc3)cc2n1Cc1cc(CO)ccc1OC(F)F [Example 16.1, (R)-7-(5-(1-(2-(difluoromethoxy)-5-(hydroxymethyl)benzyl)-2-methyl-3-oxo-2,3-dihydro-1H-indazol-6-yl)pyrimidin-2-yl)hexahydroimidazo[1,5-a]pyrazin-3(2H)-one] | < 1000
CN1CCC(Nc2ncc(-c3ccc4c(=O)n(C)n(Cc5cc(CO)ccc5OC(F)F)c4c3)cn2)C1=O (centres unmarked) [Example 16.2] | 1000 to 10000
Cn1c(=O)c2ccc(-c3cnc(N4CCN5C(=O)OC[C@@H]5C4)nc3)cc2n1Cc1cc(CO)ccc1OC(F)F [Example 16.3, (S)-7-(5-(1-(2-(difluoromethoxy)-5-(hydroxymethyl)benzyl)-2-methyl-3-oxo-2,3-dihydro-1H-indazol-6-yl)pyrimidin-2-yl)tetrahydro-1H-oxazolo[3,4-a]pyrazin-3(5H)-one] | < 1000
Cn1c(=O)c2ccc(-c3cnc(N4CCN5C(=O)OC[C@H]5C4)nc3)cc2n1Cc1cc(CO)ccc1OC(F)F [Example 16.4] | < 1000
Cn1c(=O)c2ccc(-c3cnc(NC4CCNC(=O)C4)nc3)cc2n1Cc1cc(CO)ccc1OC(F)F (centres unmarked) [Example 16.5] | < 1000
Cn1c(=O)c2ccc(-c3cnc(NC4CCNC4=O)nc3)cc2n1Cc1cc(CO)ccc1OC(F)F (centres unmarked) [Example 16.6] | 1000 to 10000
Cn1c(=O)c2ccc(-c3cnc(C(C)(C)O)nc3)cc2n1Cc1cc(CO)ccc1OC(F)F [Example 16.7] | < 1000
CC(=O)N1CCN(c2ncc(-c3ccc4c(=O)n(C)n(Cc5cc(CO)ccc5OC(F)F)c4c3)cn2)CC1 [Example 16.8] | < 1000
CN1CCC(Nc2ncc(-c3ccc4c(=O)n(C)n(Cc5cc(CO)ccc5OC(F)F)c4c3)cn2)CC1=O (centres unmarked) [Example 16.9] | < 1000
Cn1c(=O)c2ccc(-c3cnc(N4CCN5C(=O)NC[C@@H]5C4)nc3)cc2n1Cc1nc(CO)ccc1C(F)(F)F [Example 16.10] | < 1000
Cn1c(=O)c2cnc(-c3cnc(N4CCOCC4)nc3)cc2n1Cc1ccccc1OC(F)F [Example 17, 1-(2-(Difluoromethoxy)benzyl)-2-methyl-6-(2-morpholinopyrimidin-5-yl)-1H-pyrazolo[4,3-c]pyridin-3(2H)-one] | > 10000
Cc1ccc(OC(F)F)c(Cn2c3cc(-c4cnc(C(C)(C)O)nc4)c(F)cc3c(=O)n2C)c1 [Example 17.1] | < 1000
Cc1ccc(OC(F)F)c(Cn2c3cc(-c4cnc(C(C)(C)O)nc4C)c(F)cc3c(=O)n2C)c1 [Example 17.2] | < 1000
Cc1ccc(OC(F)F)c(Cn2c3cc(-c4cnc(N5CCN(C(=O)CO)C[C@H]5C)nc4)c(F)cc3c(=O)n2C)c1 [Example 17.3] | < 1000
Cc1ccc(OC(F)F)c(Cn2c3cc(-c4cnc(C(C)(C)CO)nc4)c(F)cc3c(=O)n2C)c1 [Example 17.4] | < 1000
Cn1c(=O)c2ccc(-c3cnc(N4CCN5C(=O)NC[C@H]5C4)nc3)cc2n1Cc1cc(CO)ccc1OC(F)F [Example 18, (S)-7-(5-(1-(2-(Difluoromethoxy)-5-(hydroxymethyl)benzyl)-2-methyl-3-oxo-2,3-dihydro-1H-indazol-6-yl)pyrimidin-2-yl)hexahydroimidazo[1,5-a]pyrazin-3(2H)-one] | < 1000
C[C@@H]1C[C@@H](O)CCN1c1ncc(-c2ccc3c(=O)n(C)n(Cc4ccccc4OC(F)F)c3c2)cn1 [Example 19, 1-(2-(Difluoromethoxy)benzyl)-6-(2-((2R,4S)-4-hydroxy-2-methylpiperidin-1-yl)pyrimidin-5-yl)-2-methyl-1H-indazol-3(2H)-one] | < 1000
Cn1c(=O)c2ccc(-c3cnc(C4(O)CCN(C=O)CC4)nc3)cc2n1Cc1ccccc1OC(F)F [Example 20, 4-(5-(1-(2-(Difluoromethoxy)benzyl)-2-methyl-3-oxo-2,3-dihydro-1H-indazol-6-yl)pyrimidin-2-yl)-4-hydroxypiperidine-1-carbaldehyde] | 1000 to 10000
C[C@H](N)C(=O)OCc1ccc(OC(F)F)c(Cn2c3cc(-c4cnc(N5CCN6C(=O)OC[C@@H]6C5)nc4)ccc3c(=O)n2C)c1 [Example 21, (S)-4-(Difluoromethoxy)-3-((2-methyl-3-oxo-6-(2-((S)-3-oxotetrahydro-1H-oxazolo[3,4-a]pyrazin-7(3H)-yl)pyrimidin-5-yl)-2,3-dihydro-1H-indazol-1-yl)methyl)benzyl 2-aminopropanoate] | < 1000
Cc1ccc(OC(F)F)c(Cn2c3cc(-c4cnc(N5CCC(O)CC5)nc4)ccc3c(=O)n2C)c1 [Example 22, 1-(2-(Difluoromethoxy)-5-methylbenzyl)-6-(2-(4-hydroxypiperidin-1-yl)pyrimidin-5-yl)-2-methyl-1H-indazol-3(2H)-one] | < 1000
COC(=O)N1CCN(c2ncc(-c3ccc4c(=O)n(C)n(Cc5cc(C)ccc5OC(F)F)c4c3)cn2)C[C@H]1C [Example 23, (R)-Methyl 4-(5-(1-(2-(difluoromethoxy)-5-methylbenzyl)-2-methyl-3-oxo-2,3-dihydro-1H-indazol-6-yl)pyrimidin-2-yl)-2-methylpiperazine-1-carboxylate] | < 1000

Other lines, results leading:

IC50 [nM] | Compound
< 1000 | CC(=O)N1CCN(c2ncc(-c3ccc4c(=O)n(C)n(Cc5cc(C)ccc5SC(F)F)c4n3)cn2)C[C@H]1C [Example 18.1]
< 1000 | CC(=O)N1CCN(c2ncc(-c3ccc4c(=O)n(C)n(Cc5cc(C)ccc5OC(F)F)c4n3)cn2)C[C@H]1C [Example 18.2]
< 1000 | CC(=O)N1CCN(c2ncc(-c3ccc4c(=O)n(C)n(Cc5cc(C)ccc5Cl)c4n3)cn2)C[C@H]1C [Example 18.3]
< 1000 | CC(=O)N1CCN(c2ncc(-c3ccc4c(=O)n(C)n(Cc5nc(C)ccc5C(F)(F)F)c4c3)cn2)C[C@H]1C [Example 19.1]
< 1000 | Cc1ccc(C(F)(F)F)c(Cn2c3cc(-c4cnc(N5CCN6C(=O)NC[C@H]6C5)nc4)ccc3c(=O)n2C)n1 [Example 19.2]
< 1000 | Cc1ccc(C(F)(F)F)c(Cn2c3cc(-c4cnc(N5CCN(C(=O)CO)[C@H](C)C5)nc4)ccc3c(=O)n2C)n1 [Example 19.3]
< 1000 | Cc1ccc(C(F)(F)F)c(Cn2c3cc(-c4cnc(N5CCN6C(=O)OC[C@H]6C5)nc4)ccc3c(=O)n2C)n1 [Example 19.4]
< 1000 | Cc1ccc(C(F)(F)F)c(Cn2c3cc(-c4cnc(N5CCN(C(=O)CO)C[C@H]5C)nc4)ccc3c(=O)n2C)n1 [Example 19.5]
1000 to 10000 | Cc1ccc(OC(F)F)c(Cn2c3cc(-c4cnc(N5CCC(C(N)=O)C5)nc4)ccc3c(=O)n2C)c1 (centres unmarked) [Example 20.1]
< 1000 | Cc1ccc(OC(F)F)c(Cn2c3cc(-c4cnc(N5CCN6C(=O)OC[C@@H]6C5)nc4)ccc3c(=O)n2C)c1 [Example 20.2]
< 1000 | CC(=O)N1CCN(c2ncc(-c3ccc4c(=O)n(C)n(Cc5cc(C)ccc5OC(F)F)c4c3)cn2)[C@H](C)C1 [Example 20.4]
< 1000 | CC[C@@H]1CN(C(C)=O)CCN1c1ncc(-c2ccc3c(=O)n(C)n(Cc4cc(C)ccc4OC(F)F)c3c2)cn1 [Example 20.5]
< 1000 | COCC(=O)N1CCN(c2ncc(-c3ccc4c(=O)n(C)n(Cc5cc(C)ccc5OC(F)F)c4c3)cn2)C[C@H]1C [Example 21.1]
< 1000 | Cc1ccc(OC(F)F)c(Cn2c3cc(-c4cnc(N5CCN(C(=O)C6COC6)[C@H](C)C5)nc4)ccc3c(=O)n2C)c1 [Example 21.2]
< 1000 | Cc1ccc(OC(F)F)c(Cn2c3cc(-c4cnc(N5CCN(C(=O)C6CCO6)[C@H](C)C5)nc4)ccc3c(=O)n2C)c1 (some centres unmarked) [Example 21.3]
< 1000 | Cc1ccc(OC(F)F)c(Cn2c3cc(-c4cnc(N5CCN(C(=O)CC#N)[C@H](C)C5)nc4)ccc3c(=O)n2C)c1 [Example 21.4]

IC50 [nM] | Compound
< 1000 | Cc1ccc(OC(F)F)c(Cn2c3cc(-c4cnc(N5CCN(C(=O)CO)CC5)nc4)ccc3c(=O)n2C)c1 [Example 22.1]
< 1000 | CC(=O)N1CCN(c2ncc(-c3ccc4c(=O)n(C)n(Cc5cc(C)ccc5OC(F)F)c4c3)cn2)[C@@H](C)C1 [Example 22.2]
< 1000 | Cc1ccc(OC(F)F)c(Cn2c3cc(-c4cnc(N5CCN(C(=O)CO)[C@H](C)C5)nc4)ccc3c(=O)n2C)c1 [Example 22.3]
< 1000 | Cc1ccc(OC(F)F)c(Cn2c3cc(-c4cnc(N5CCN(C(=O)CO)C[C@H]5C)nc4)ccc3c(=O)n2C)c1 [Example 22.4]
< 1000 | Cc1ccc(OC(F)F)c(Cn2c3cc(-c4cnc(C(C)(C)O)nc4C)ccc3c(=O)n2C)c1 [Example 22.5]
< 1000 | CC(=O)N1CCN(c2ncc(-c3ccc4c(=O)n(C)n(Cc5cc(C)ccc5OC(F)F)c4c3)cn2)CC1 [Example 22.6]
1000 to 10000 | Cc1ccc(OC(F)F)c(Cn2c3cc(-c4cnc(N5CCC[C@H]5CO)nc4)ccc3c(=O)n2C)c1 [Example 22.7]
1000 to 10000 | Cc1ccc(OC(F)F)c(Cn2c3cc(-c4cnc(N5CCC[C@@H]5CO)nc4)ccc3c(=O)n2C)c1 [Example 22.8]
1000 to 10000 | Cc1ccc(OC(F)F)c(Cn2c3cc(-c4cnc(C(C)(C)CO)nc4)ccc3c(=O)n2C)c1 [Example 22.9]
< 1000 | CC(=O)N1CCN(c2ncc(-c3ccc4c(=O)n(C)n(Cc5cc(C)ccc5OC(F)F)c4c3)cn2)C[C@H]1CO [Example 22.10]
< 1000 | CC(=O)N1CCN(c2ncc(-c3ccc4c(=O)n(C)n(Cc5cc(C)ccc5OC(F)F)c4c3)cn2)C[C@@H]1CO [Example 22.11]
< 1000 | Cc1ccc(OC(F)F)c(Cn2c3cc(-c4cnc(N5CCN6C(=O)OC[C@H]6C5)nc4)ccc3c(=O)n2C)c1 [Example 22.12]
< 1000 | Cc1ccc(OC(F)F)c(Cn2c3cc(-c4ccnc(OC5CCOCC5)c4)ccc3c(=O)n2C)c1 [Example 22.13]
< 1000 | CC(=O)N1CCN(c2ncc(-c3ccc4c(=O)n(C)n(Cc5cc(C)ccc5OC(F)F)c4c3)c(C)n2)[C@H](C)C1 [Example 22.14]
< 1000 | Cc1ccc(OC(F)F)c(Cn2c3cc(-c4cnc(N5CCN(C(=O)CO)C[C@@H]5C)nc4)ccc3c(=O)n2C)c1 [Example 22.15]
< 1000 | C[C@@H]1CN(c2ncc(-c3ccc4c(=O)n(C)n(Cc5ccccc5Cl)c4n3)cn2)CCN1C(=O)CO [Example 23.1]
